Where two headings read alike, the source gives them in different places.
Experiments:
[1] = tested on: Pyricularia oryzae; assay: whole plant or invertebrate; assay type: in vivo; conditions: Pyricularia oryzae, foliar, 24 h, read-out: Percent Disease Control, curative, rice blast, 150 ppm, 24 hours after inoculation
[2] = tested on: Sclerotinia fructicola; assay: Mycelial growth test; assay type: cell-based; conditions: Sclerotinia, 72 h, SF, read-out: Percent Fungus Growth Inhibition
Source text: | SF = Sclerotinia fructicola

[3] = tested on: Helminthosporium oryzae; assay: Mycelial growth test; conditions: Bipolaris oryzae, 72 h; for inhibition at 5 ppm: read-out: Percent Fungus Growth Inhibition, HO, 5 ppm, 72 hours; for inhibition at 10 ppm: read-out: Percent Fungus Growth Inhibition, HO, 10 ppm, 72 hours; for inhibition at 20 ppm: read-out: Percent Fungus Growth Inhibition, HO, 20 ppm, 72 hours; for inhibition at 40 ppm: read-out: Percent Fungus Growth Inhibition, HO, 40 ppm, 72 hours
[4] = tested on: Uromyces phaseoli; assay: whole plant or invertebrate; conditions: foliar, 24 h, read-out: Percent Disease Control, curative, bean rust
[5] = tested on: Cladosporium cucumerinum; assay: Mycelial growth test; assay type: cell-based; conditions: Cladosporium cucumerinum, CC, read-out: Percent Fungus Growth Inhibition; for inhibition at 5 ppm / inhibition at 10 ppm / inhibition at 40 ppm: 72 h; for inhibition at 20 ppm: CC20, 72 h
Source text: |CC = Cladosporium cucumerinum

[6] = tested on: Phytophthora infestans; assay: whole plant or invertebrate; assay type: in vivo; conditions: Phytophthora infestans, in Solanum lycopersicum, foliar, read-out: Percent Disease Control, foliar, tomato late blight, 150 ppm, protective
[7] = tested on: Pyricularia oryzae; assay: microbe, parasite or virus in culture; assay type: cell-based; conditions: Pyricularia oryzae, 72 h; for inhibition at 5 ppm: read-out: Percent Fungus Growth Inhibition, PO, 5 ppm, 72 hours; for inhibition at 10 ppm: read-out: Percent Fungus Growth Inhibition, PO, 10 ppm, 72 hours; for inhibition at 20 ppm: read-out: Percent Fungus Growth Inhibition, PO, 20 ppm, 72 hours; for inhibition at 40 ppm: read-out: Percent Fungus Growth Inhibition, PO, 40 ppm, 72 hours
[8] = tested on: Alternaria solani; assay: Mycelial growth test; assay type: cell-based; conditions: Alternaria solani, 72 h, AS, read-out: Percent Fungus Growth Inhibition
[9] = tested on: Phytophthora infestans; assay type: cell-based; conditions: PI, 48 hours
[10] = tested on: Pythium ultimum; assay: Mycelial growth test; assay type: cell-based; conditions: Globisporangium ultimum, 72 h, PU, read-out: Percent Fungus Growth Inhibition
[11] = tested on: Pyricularia oryzae; assay type: cell-based; conditions: PO, 48 hours
[12] = tested on: Cladosporium cucumerinum; assay: Spore germination test; assay type: cell-based; conditions: CC, 48 hours
Description: CC = Cladosporium cucumerinum
(§1) The test chemical was dissolved or suspended in acetone in an amount such that 0.8 ml of the resulting suspension or solution, mixed with 40 ml water agar produced a water agar solution containing 40, 10, 2.5 and 1 ppm of test chemical. The resulting agar solution, at 50° C., was then divided equally between two sterile petri dishes, each having four separated quadrants, and allowed to solidify. […] quadrants of each dish were flooded with 0.1 ml of a spore suspension in sterile water. Spores of two pathogens, Erysiphe polygoni and Uromyes phaseoli, from infected plant leaves, were brushed on the remaining two quadrants. The tests were then incubated 48 hours, at 24° C.
(§2) Readings were then taken and the percentage of germinated spores calculated. From this percentage, a spore germination rating was assigned as follows: […]

[13] = tested on: Botrytis cinerea; assay: Spore germination test; assay type: cell-based; conditions: BC, 48 hours
Description: as §1, §2

[14] = tested on: Erysiphe polygoni; assay: Spore germination test; assay type: cell-based; conditions: EP, 48 hours
Description: as §1, §2

[15] = tested on: Uromyces phaseoli; assay: Spore germination test; assay type: cell-based; conditions: UP, 48 hours
Description: as §1, §2

[16] = tested on: Alternaria solani; assay: Spore germination test; assay type: cell-based; conditions: AS, 48 hours
Description: as §1, §2

[17] = tested on: Rhizoctonia solani; assay: Mycelial growth test; assay type: cell-based; conditions: Rhizoctonia solani, 72 h, RS, read-out: Percent Fungus Growth Inhibition
Source text: | RS = Rhizoctonia solani

[18] = tested on: Uromyces phaseoli; assay: whole plant or invertebrate; conditions: foliar, read-out: Percent Disease Control, foliar, bean rust
[19] = tested on: Erysiphe polygoni; assay: whole plant or invertebrate; conditions: foliar, 24 h, read-out: Percent Disease Control, curative, bean powdery mildew
[20] = tested on: Fusarium solani; assay: Mycelial growth test; assay type: cell-based; conditions: Fusarium solani, 72 h; for inhibition at 5 ppm / inhibition at 10 ppm / inhibition at 20 ppm: PS, 72 hours, read-out: Percent Fungus Growth Inhibition; for inhibition at 40 ppm: read-out: Percent Fungus Growth Inhibition, PS, 40 ppm, 72 hours

With `COc1cc(Oc2nsnc(Cl)c2=O)cc(OC)c1C(C)=O` [Compound 61, 3-[(4-acetyl-3,5-dimethoxy)-phenoxy]-5-chloro-4H--1,2,6-thiadiazin-4-one] the pest or weed control at 150 ppm [1] was 0%, the inhibition at 5 ppm [2] was 7% and the inhibition at 10 ppm [2] was 19%. It also gave an inhibition at 20 ppm [2] of 59%, an inhibition at 40 ppm [2] of 85% and an inhibition at 5 ppm [3] of 13%. For the same compound, the inhibition at 10 ppm [3] was 33%, the inhibition at 20 ppm [3] was 100% and the inhibition at 40 ppm [3] was 100%. It also gave a pest or weed control at 150 ppm [4] of 0%, an inhibition at 5 ppm [5] of 6% and an inhibition at 10 ppm [5] of 23%. The inhibition at 40 ppm [5] was 52%, the inhibition at 20 ppm [5] was 32% and the pest or weed control at 150 ppm [6] was 0%. For the same compound, the inhibition at 5 ppm [7] was 28%, the inhibition at 10 ppm [7] was 42% and the inhibition at 20 ppm [7] was 50%. For the same compound, the inhibition at 40 ppm [7] was 44%, the inhibition at 5 ppm [8] was 33% and the inhibition at 10 ppm [8] was 29%. The inhibition at 20 ppm [8] was 25%, the inhibition at 40 ppm [8] was 42% and the “Spore Germination Rating” value ([9]; 1.0 ppm) was 4 (80-100). For the same compound, the “Spore Germination Rating” value ([9]; 2.5 ppm) was 4 (80-100), the “Spore Germination Rating” value ([9]; 10 ppm) was 3 (60-80) and the “Spore Germination Rating” value ([9]; 40 ppm) was 0 (0-10). It also gave an inhibition at 5 ppm [10] of 31%, an inhibition at 10 ppm [10] of 42% and an inhibition at 20 ppm [10] of 100%. For the same compound, the inhibition at 40 ppm [10] was 100%, the “Spore Germination Rating” value ([11]; 1.0 ppm) was 4 (80-100) and the “Spore Germination Rating” value ([11]; 2.5 ppm) was 4 (80-100). For the same compound, the “Spore Germination Rating” value ([11]; 10 ppm) was 2 (40-60), the “Spore Germination Rating” value ([11]; 40 ppm) was 1 (10-40) and the “Spore Germination Rating” value ([12]; 1.0 ppm) was 4 (80-100). For the same compound, the “Spore Germination Rating” value ([12]; 2.5 ppm) was 0 (0-10), the “Spore Germination Rating” value ([12]; 10 ppm) was 0 (0-10) and the “Spore Germination Rating” value ([12]; 40 ppm) was 0 (0-10). For the same compound, the “Spore Germination Rating” value ([13]; 1.0 ppm) was 4 (80-100), the “Spore Germination Rating” value ([13]; 2.5 ppm) was 4 (80-100) and the “Spore Germination Rating” value ([13]; 10 ppm) was 3 (60-80). For the same compound, the “Spore Germination Rating” value ([13]; 40 ppm) was 2 (40-60), the “Spore Germination Rating” value ([14]; 1.0 ppm) was 1 (10-40) and the “Spore Germination Rating” value ([14]; 2.5 ppm) was 1 (10-40). For the same compound, the “Spore Germination Rating” value ([14]; 10 ppm) was 1 (10-40), the “Spore Germination Rating” value ([14]; 40 ppm) was 0 (0-10) and the “Spore Germination Rating” value ([15]; 1.0 ppm) was 2 (40-60). The “Spore Germination Rating” value ([15]; 2.5 ppm) was 1 (10-40), the “Spore Germination Rating” value ([15]; 10 ppm) was 2 (40-60) and the “Spore Germination Rating” value ([15]; 40 ppm) was 0 (0-10). The “Spore Germination Rating” value ([16]; 1.0 ppm) was 4 (80-100), the “Spore Germination Rating” value ([16]; 2.5 ppm) was 3 (60-80) and the “Spore Germination Rating” value ([16]; 10 ppm) was 2 (40-60). The “Spore Germination Rating” value ([16]; 40 ppm) was 2 (40-60), the inhibition at 5 ppm [17] was 0% and the inhibition at 10 ppm [17] was 13%. For the same compound, the inhibition at 20 ppm [17] was 33%, the inhibition at 40 ppm [17] was 47% and the pest or weed control at 150 ppm [18] was 100%. For the same compound, the pest or weed control at 150 ppm [19] was 0%, the inhibition at 5 ppm [20] was 16% and the inhibition at 10 ppm [20] was 46%. The inhibition at 20 ppm [20] was 23% and the inhibition at 40 ppm [20] was 0%.

For `COc1cc(Cl)cc(Oc2nsnc(Cl)c2=O)c1` [Compound 52, 3-chloro-5-[(3-chloro-5-methoxy)phenoxy]-4H--1,2,6-thiadiazin-4-one], the pest or weed control at 150 ppm [1] was 95%, the inhibition at 5 ppm [2] was 65% and the inhibition at 10 ppm [2] was 81%. It also gave an inhibition at 20 ppm [2] of 100%, an inhibition at 40 ppm [2] of 100% and an inhibition at 5 ppm [3] of 100%. The inhibition at 10 ppm [3] was 89%, the inhibition at 20 ppm [3] was 100% and the inhibition at 40 ppm [3] was 100%. It also gave a pest or weed control at 150 ppm [4] of 0%, an inhibition at 5 ppm [5] of 15% and an inhibition at 10 ppm [5] of 46%. It also gave an inhibition at 40 ppm [5] of 77%, an inhibition at 20 ppm [5] of 88% and a pest or weed control at 150 ppm [6] of 50%. For the same compound, the inhibition at 5 ppm [7] was 58%, the inhibition at 10 ppm [7] was 77% and the inhibition at 20 ppm [7] was 100%. For the same compound, the inhibition at 40 ppm [7] was 100%, the inhibition at 5 ppm [8] was 52% and the inhibition at 10 ppm [8] was 71%. For the same compound, the inhibition at 20 ppm [8] was 90%, the inhibition at 40 ppm [8] was 90% and the “Spore Germination Rating” value ([9]; 1.0 ppm) was 4 (80-100). For the same compound, the “Spore Germination Rating” value ([9]; 2.5 ppm) was 0 (0-10), the “Spore Germination Rating” value ([9]; 10 ppm) was 0 (0-10) and the “Spore Germination Rating” value ([9]; 40 ppm) was 0 (0-10). For the same compound, the inhibition at 5 ppm [10] was 4%, the inhibition at 10 ppm [10] was 60% and the inhibition at 20 ppm [10] was 100%. The inhibition at 40 ppm [10] was 100%, the “Spore Germination Rating” value ([11]; 1.0 ppm) was 4 (80-100) and the “Spore Germination Rating” value ([11]; 2.5 ppm) was 0 (0-10). The “Spore Germination Rating” value ([11]; 10 ppm) was 0 (0-10), the “Spore Germination Rating” value ([11]; 40 ppm) was 0 (0-10) and the “Spore Germination Rating” value ([12]; 1.0 ppm) was 4 (80-100). For the same compound, the “Spore Germination Rating” value ([12]; 2.5 ppm) was 0 (0-10), the “Spore Germination Rating” value ([12]; 10 ppm) was 0 (0-10) and the “Spore Germination Rating” value ([12]; 40 ppm) was 0 (0-10). For the same compound, the “Spore Germination Rating” value ([13]; 1.0 ppm) was 4 (80-100), the “Spore Germination Rating” value ([13]; 2.5 ppm) was 3 (60-80) and the “Spore Germination Rating” value ([13]; 10 ppm) was 0 (0-10). The “Spore Germination Rating” value ([13]; 40 ppm) was 0 (0-10), the “Spore Germination Rating” value ([14]; 1.0 ppm) was 4 (80-100) and the “Spore Germination Rating” value ([14]; 2.5 ppm) was 2 (40-60). The “Spore Germination Rating” value ([14]; 10 ppm) was 0 (0-10), the “Spore Germination Rating” value ([14]; 40 ppm) was 0 (0-10) and the “Spore Germination Rating” value ([15]; 1.0 ppm) was 2 (40-60). The “Spore Germination Rating” value ([15]; 2.5 ppm) was 0 (0-10), the “Spore Germination Rating” value ([15]; 10 ppm) was 0 (0-10) and the “Spore Germination Rating” value ([15]; 40 ppm) was 0 (0-10). For the same compound, the “Spore Germination Rating” value ([16]; 1.0 ppm) was 4 (80-100), the “Spore Germination Rating” value ([16]; 2.5 ppm) was 3 (60-80) and the “Spore Germination Rating” value ([16]; 10 ppm) was 0 (0-10). For the same compound, the “Spore Germination Rating” value ([16]; 40 ppm) was 0 (0-10), the inhibition at 5 ppm [17] was 33% and the inhibition at 10 ppm [17] was 64%. For the same compound, the inhibition at 20 ppm [17] was 64%, the inhibition at 40 ppm [17] was 100% and the pest or weed control at 150 ppm [18] was 0%. It also gave a pest or weed control at 150 ppm [19] of 75%, an inhibition at 5 ppm [20] of 80% and an inhibition at 10 ppm [20] of 90%. The inhibition at 20 ppm [20] was 100% and the inhibition at 40 ppm [20] was 100%.
